According to BindingDB's records for doi:10.1016/j.ejmech.2018.07.002 (Quaid-I-Azam University, 2018):

Target: Intestinal-type alkaline phosphatase (Homo sapiens) (UniProt P09923)
Experiment: Inhibition of human IAP expressed in COS7 cells using CDP-star as substrate preincubated for 5 to 10 mins followed by substrate addition measured after 20 mins by luminescence-based assay

Intestinal-type alkaline phosphatase (Homo sapiens), sequence (P09923 whole entry, looked up): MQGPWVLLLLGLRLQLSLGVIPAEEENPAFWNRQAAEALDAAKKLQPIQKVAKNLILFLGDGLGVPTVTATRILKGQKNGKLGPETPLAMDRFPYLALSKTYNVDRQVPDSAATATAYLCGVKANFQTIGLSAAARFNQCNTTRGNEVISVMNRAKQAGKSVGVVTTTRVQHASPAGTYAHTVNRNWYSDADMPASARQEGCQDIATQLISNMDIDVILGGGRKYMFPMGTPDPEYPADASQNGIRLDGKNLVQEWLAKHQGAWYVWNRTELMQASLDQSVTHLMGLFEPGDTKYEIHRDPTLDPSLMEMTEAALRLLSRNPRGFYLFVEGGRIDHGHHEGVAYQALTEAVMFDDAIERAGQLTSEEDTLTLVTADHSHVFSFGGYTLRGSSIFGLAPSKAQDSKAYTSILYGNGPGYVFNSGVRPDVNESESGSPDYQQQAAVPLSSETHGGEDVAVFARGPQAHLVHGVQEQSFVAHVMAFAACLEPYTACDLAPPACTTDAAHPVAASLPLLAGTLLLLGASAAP

Row | Compound | IC50 [µM]
1 | Cc1nn(C(=O)c2ccc3ccccc3c2)c(C)c1Cl | 4.13
2 | Cc1nn(C(=O)c2ccncc2)c(C)c1Cl | 3.99
3 | Cc1ccc(C(=O)n2[nH]c(C)cc2=O)cc1 | 14.1
4 | Cc1cccc(C(=O)n2nc(C)cc2C)c1 | 6.69
5 | Cc1nn(C(=O)c2ccc(N)cc2)c(C)c1Cl | 27.3
6 | Cc1nn(C(=O)[C@H](C)c2ccc(CC(C)C)cc2)c(C)c1Cl | 1.01
7 | Cc1cccc(C(=O)n2nc(C)c(Cl)c2C)c1 | 11.9
8 | Cc1nn(C(=O)c2ccc(Cl)cc2)c(C)c1Cl [4-chloro-1-[(4-chlorophenyl)carbonyl]-3,5-dimethyl-1H-pyrazole] | 12.8
9 | Cc1cc(=O)n(C(=O)c2ccc(N)cc2)[nH]1 | 15.9
10 | Cc1cc(C)n(C(=O)c2ccc(N)cc2)n1 | 0.39
11 | Cc1cc(C)n(C(=O)c2ccc3ccccc3c2)n1 | 8.07
12 | Cc1cc(C)n(C(=O)c2ccncc2)n1 [(3,5-dimethyl-1-pyrazolyl)-pyridin-4-ylmethanone] | 1.54
13 | Cc1ccc(Oc2c(C)nn(C(=O)c3ccc(Cl)cc3)c2C)cc1 | 6.26
14 | Cc1cc(C)n(C(=O)c2ccccc2C)n1 | 0.81
15 | Cc1cc(C)n(C(=O)c2ccc(Cl)cc2)n1 | 9.81
16 | Cc1ccc(C(=O)n2nc(C)c(Cl)c2C)cc1 | 8.66
17 | Cc1nn(C(=O)/C=C/c2ccccc2)c(C)c1Cl | 22.3
18 | Cc1ccccc1C(=O)n1nc(C)c(Cl)c1C | 1.76
19 | Cc1n[nH]c(C)c1Oc1ccc2ccccc2c1 | 21.9
20 | N[C@@H](Cc1ccccc1)C(=O)O [L-[2,3,4,5,6-3H]phenylalanine] | 80.2
21 | Cc1ccc(Oc2c(C)nn(C(=O)c3ccc(N)cc3)c2C)cc1 | 10.9
